Source: patent US20260159503A1, “1,2,3-TRIAZOLE LINKER-CONTAINING COMPOUNDS” (HIGH POINT UNIVERSITY, priority 2024, published 2026)

Legend:
human D2R long isoform = molecular target: T1, human D2R long isoform (Homo sapiens, UniProt P14416); assay: DiscoverX PathHunter β-arrestin recruitment assay, D2R; assay type: cell-based; settings: triazole; antagonist; read-out: potency, β-arrestin recruitment at the D2R
T1 construct: host or cells: CHO-K1
Procedure: (§1) Luminescence was measured on a Hamamatsu FDSS μCell reader.
(§2) Efficacy/antagonist % (Ant. %) values were obtained from nonlinear regression of meaned data obtained from at least three independent experiments with triplicate measures. Values are presented as means±SEM.

human D3R = molecular target: T2, human D3R (Homo sapiens, UniProt P35462); assay: DiscoverX PathHunter β-arrestin recruitment assay, D3R; assay type: cell-based; settings: triazole; antagonist; read-out: potency, β-arrestin recruitment at the D3R
T2 construct: host or cells: CHO-K1
T2 sequence (P35462 whole entry): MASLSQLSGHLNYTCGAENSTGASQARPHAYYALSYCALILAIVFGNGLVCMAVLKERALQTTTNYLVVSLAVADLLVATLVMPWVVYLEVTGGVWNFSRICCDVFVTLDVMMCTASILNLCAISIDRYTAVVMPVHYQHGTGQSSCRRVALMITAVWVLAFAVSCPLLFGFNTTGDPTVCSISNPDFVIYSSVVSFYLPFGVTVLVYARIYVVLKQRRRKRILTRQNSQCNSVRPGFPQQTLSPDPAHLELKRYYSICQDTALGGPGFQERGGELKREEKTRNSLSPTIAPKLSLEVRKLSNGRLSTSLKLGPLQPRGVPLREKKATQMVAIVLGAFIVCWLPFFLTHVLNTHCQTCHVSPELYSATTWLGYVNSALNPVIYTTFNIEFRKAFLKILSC
Procedure: as §1, §2

T1 sequence (P14416 whole entry, canonical isoform): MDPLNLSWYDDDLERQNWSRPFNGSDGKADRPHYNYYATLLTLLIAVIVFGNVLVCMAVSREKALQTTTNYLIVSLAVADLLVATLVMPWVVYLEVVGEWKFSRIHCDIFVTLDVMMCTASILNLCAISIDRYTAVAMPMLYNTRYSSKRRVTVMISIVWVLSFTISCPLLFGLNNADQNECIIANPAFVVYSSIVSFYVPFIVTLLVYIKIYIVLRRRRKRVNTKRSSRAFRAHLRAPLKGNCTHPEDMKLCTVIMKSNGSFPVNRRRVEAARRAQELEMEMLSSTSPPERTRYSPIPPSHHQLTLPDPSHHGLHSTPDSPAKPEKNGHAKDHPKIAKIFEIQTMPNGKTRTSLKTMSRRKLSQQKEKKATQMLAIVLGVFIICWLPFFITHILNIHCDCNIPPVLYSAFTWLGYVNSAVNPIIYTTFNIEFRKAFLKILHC

Cc1cccc(-n2cc(CN3CCC(c4ccccc4)CC3)nn2)c1 [Compound 14, 4-phenyl-1-((1-(m-tolyl)-1H-1,2,3-triazol-4-yl)methyl)piperidine]
IC50 (human D2R long isoform): > 6 µM | IC50 (human D3R): > 6 µM
